We go through 18 molecules from patent US10583119B2, “Compounds, compositions and methods for making the same” (Signum Biosciences, Inc., priority 2008, dated 2020).

Like-named read-outs stand apart in the source and are kept apart here. Some results are limits rather than exact numbers.

What all share (type): biochemical
The target in assay [1] is T1, protein phosphatase specific protein methylesterase (MEase) (Homo sapiens, UniProt Q9Y570).
T1 construct: made in house
T1 sequence (Q9Y570 1-386): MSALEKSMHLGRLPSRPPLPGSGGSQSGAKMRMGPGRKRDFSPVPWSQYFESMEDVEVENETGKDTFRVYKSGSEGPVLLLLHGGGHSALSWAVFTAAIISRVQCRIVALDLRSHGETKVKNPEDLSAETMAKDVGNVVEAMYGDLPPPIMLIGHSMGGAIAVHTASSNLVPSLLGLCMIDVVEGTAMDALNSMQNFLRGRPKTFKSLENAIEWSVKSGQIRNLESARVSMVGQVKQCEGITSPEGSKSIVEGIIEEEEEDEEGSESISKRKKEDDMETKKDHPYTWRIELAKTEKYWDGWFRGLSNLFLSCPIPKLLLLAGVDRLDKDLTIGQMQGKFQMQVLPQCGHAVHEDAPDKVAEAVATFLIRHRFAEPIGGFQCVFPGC
The experiment in a line: PP2A demethylation with [3H]-SAM and purified proteins (methylesterase activity). The protocol: PP2A (methylated and unmethylated) were eluted with 1.6 mL of Buffer A containing 350 mM NaCl. Fractions (0.2 mL each) were collected and the radioactivity in each fraction was measured using the scintillation counter (LS 6000SE, Beckman). Fractions with highest radioactivity were containing purified methylated PP2A were pooled with a total volume of 0.6 mL-0.8 mL. Purified methylated PP2A (50 nM-100 nM) was incubated with MEase (5 nM-20 nM) in 20 μl-50 μl reaction at room temperature for 30 minutes. The reaction was terminated by adding TCA (2 μl-6 μl) to a final concentration of 10%. Released [^3H]-methanol in supernatants was counted with scintillation counter (LS 6000SE, Beckman).

Assay [2] concerns the target T2, PP2A (Homo sapiens, UniProt P67775).
T2 construct: made in house
The experiment in a line: Phosphatase activity of PP2A using phosphorylase a as substrate. As to conditions: un-methylated PP2A, protein substrate phosphorylase a, absence of ME and MT. As to the method: After the reaction, proteins were precipitated by 50% (NH4)2SO4 (final concentration) twice, and collected by centrifugation. The pellet was re-dissolved and dialyzed in a buffer containing 50 mM Tris-HCl (pH6.9) and ImM DTT for 2×2 L at 4° C. overnight. Phosphorylase a (phospho-phosphorylase b) crystallized during the dialysis. The dialysate was centrifuged 14,000 r.p.m at 4° C. for 30 minutes, the supernatant was removed and purified ^32P-labelled phosphorylase a was re-dissolved in +50% glycerol, and stored at −20° C.
To measure PP2A's phosphatase activity, PP2A (5-20 nM) was incubated with phosphorylase a (5-10 μM) at 37° C. 10% TCA (final concentration) and was added to the reaction to precipitate proteins. Supernatant that contains free ^32P-phosphate group was added into scintillation counting solution (Ecoscint, National Diagnostics), and counted by scintillation counter (LS 6000SE, Beckman).

Assay [3] deals with T2, PP2A. The experiment in a line: Phosphatase activity of PP2A using pNPP as substrate. The following applies: un-methylated PP2A, non-protein substrate pNPP, absence of ME and MT. As to the method: PP2A (10-200 nM) and pNPP (5-10 mM, Sigma) were mixed into 96-well plate (Fisher Scientific Inc.) in 50 μL of the buffer required. Reactions were performed at room temperature, and fully stopped by adding equal volume of 0.1 M EDTA. Production of p-nitrophenol […] was quantified by absorbance of reaction mixtures at 405 nm using the VMax® microplate reader (Molecular Devices).

Assay [4] deals with T3, protein phosphatase 2A specific methyltransferase (MTase) (Homo sapiens, UniProt Q9UIC8).
T3 construct: His; made in house
The experiment in a line: PP2A methylation in 96-well plate format (methyltransferase activity). The following applies: purified PP2A, MTase and [3H]-SAM; read-out: MT (IC50). The protocol: Purified PP2A, MTase and [^3H]-SAM, were incubated in reaction buffer at 37° C. At the end of the reaction, mixture was added onto the membranes of 96-well filter plate (Multiscreen™, Millipore). The membranes were then pre-wetted with 70% ethanol (50 μL/well) and then subsequently washed with water (2×200 μL/well). The reaction in each well was terminated and the proteins (5 μL-20 μL) were precipitated by adding 25% ice-cold TCA. The plate was kept on ice for 30 minutes to ensure completion of protein precipitation. Excess of the free SAM was then removed by washing with 5% cold TCA ([…]) and 70% cold ethanol (2×100 μL/well). Membranes were air-dried, radioactivity in each well was counted by TopCount^NXT scintillation counter (Packard) with 25 μL/well of Microsinct™ 20 (PerkinElmer).

[5] abbreviates: purified methylated PP2A and MEase, read-out: ME (IC50).

T3 sequence (Q9UIC8 whole entry): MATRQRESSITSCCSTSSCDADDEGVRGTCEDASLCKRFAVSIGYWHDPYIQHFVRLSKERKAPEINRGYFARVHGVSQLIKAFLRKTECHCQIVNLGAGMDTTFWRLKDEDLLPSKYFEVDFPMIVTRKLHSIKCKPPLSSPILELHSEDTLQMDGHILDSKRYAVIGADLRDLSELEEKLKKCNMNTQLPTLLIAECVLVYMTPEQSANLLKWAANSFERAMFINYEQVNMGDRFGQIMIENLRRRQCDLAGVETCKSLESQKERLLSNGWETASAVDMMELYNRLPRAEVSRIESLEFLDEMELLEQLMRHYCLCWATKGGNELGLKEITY
T2 sequence (P67775 whole entry): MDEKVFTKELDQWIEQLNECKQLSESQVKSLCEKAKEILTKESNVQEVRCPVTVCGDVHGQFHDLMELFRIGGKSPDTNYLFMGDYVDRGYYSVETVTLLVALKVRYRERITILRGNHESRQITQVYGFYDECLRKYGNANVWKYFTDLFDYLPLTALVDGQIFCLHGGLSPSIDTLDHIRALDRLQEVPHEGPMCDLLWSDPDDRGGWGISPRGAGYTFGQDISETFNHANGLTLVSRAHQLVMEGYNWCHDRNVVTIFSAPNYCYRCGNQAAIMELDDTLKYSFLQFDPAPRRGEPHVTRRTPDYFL
T2 sequence (P30153 whole entry partner): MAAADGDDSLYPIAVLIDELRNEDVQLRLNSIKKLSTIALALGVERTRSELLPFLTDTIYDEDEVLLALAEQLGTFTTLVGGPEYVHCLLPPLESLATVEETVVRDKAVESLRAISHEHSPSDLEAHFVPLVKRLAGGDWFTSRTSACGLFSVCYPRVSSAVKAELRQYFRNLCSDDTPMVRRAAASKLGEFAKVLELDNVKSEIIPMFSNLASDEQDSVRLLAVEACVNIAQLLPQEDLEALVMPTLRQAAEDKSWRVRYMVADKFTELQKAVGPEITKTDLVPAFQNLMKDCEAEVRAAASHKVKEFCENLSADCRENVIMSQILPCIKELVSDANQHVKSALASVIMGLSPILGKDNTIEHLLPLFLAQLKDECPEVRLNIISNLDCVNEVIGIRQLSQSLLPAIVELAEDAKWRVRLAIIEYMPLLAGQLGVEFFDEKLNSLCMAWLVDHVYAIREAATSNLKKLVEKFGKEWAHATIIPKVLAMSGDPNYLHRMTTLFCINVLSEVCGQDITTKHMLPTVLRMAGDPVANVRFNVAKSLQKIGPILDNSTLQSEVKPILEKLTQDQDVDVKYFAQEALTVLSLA

Regarding `CCCCCCC(O)CCCCCCCCCCC(=O)NCCc1c[nH]c2ccc(O)cc12` (stereo not shown) [Compound I-29, 12-hydroxy-N-[2-(5-hydroxy-1H-indol-3-yl)ethyl] octadecanamide], the half-maximal inhibitory concentration (IC50) is 10 to 100 µM in assay [1] (setting [5]), > 100 µM at PP2A [2], < 10 µM against PP2A [3] and 10 to 100 µM in assay [4].
For the molecule `CCCCCCCCCCCCCCCCNC(=O)NCCc1c[nH]c2ccc(O)cc12` [Compound I-30, 3-hexadecyl-1-[2-(5-hydroxy-1H-indol-3-yl)ethyl]urea], the IC50 in assay [1] (setting [5]) is < 10 µM; on PP2A [2] it was 10 to 100 µM; at PP2A [3], 10 to 100 µM; in assay [4] it was 10 to 100 µM.
On to `CCCCCCCCCCCCCCCCCCNC(=O)NCCc1c[nH]c2ccc(O)cc12` [Compound I-31, 1-[2-(5-hydroxy-1H-indol-3-yl)ethyl]-3-octadecylurea], for which the IC50 in assay [1] (setting [5]) is < 10 µM; against PP2A [2], 10 to 100 µM; against PP2A [3], 10 to 100 µM; in assay [4], 10 to 100 µM.
In the case of `CCCCCCCCCCCCCCCCCCCC(=O)NCCc1c[nH]c2ccc(OC(=O)CCC(=O)O)cc12` [Compound I-32, 4-{[3-(2-icosanamidoethyl)-1H-indol-5-yl]oxy}-4-oxobutanoic acid], the IC50 was < 10 µM in assay [1] (setting [5]), 10 to 100 µM on PP2A [2], 10 to 100 µM at PP2A [3] and < 10 µM in assay [4].
As to `CCCCCCCCCCCCCCCCCCCC(=O)NCCc1c[nH]c2ccc(OC(C)=O)cc12` [Compound I-33, 3-(2-icosanamidoethyl)-1H-indol-5-yl acetate], the figures for the IC50 (in assay [1] (setting [5]); on PP2A [3]; in assay [4]) were < 10 µM, 10 to 100 µM and < 10 µM, respectively.
For `CCCCCCCCCCCCCCCCCCCC(=O)NCCc1c[nH]c2ccc(F)cc12` [Compound I-35, N-[2-(5-fluoro-1H-indol-3-yl)ethyl]icosanamide], the 50% inhibitory concentration (IC50) in assay [1] (setting [5]) was < 10 µM; at PP2A [2] it was > 100 µM; at PP2A [3] it was 10 to 100 µM; in assay [4], < 10 µM.
Regarding `CCCCCCCCCCCCCCCCCCCC(=O)NCCc1c[nH]c2ccc(C)cc12` [Compound I-36, N-[2-(5-methyl-1H-indol-3-yl)ethyl]icosanamide], the IC50 is 10 to 100 µM in assay [1] (setting [5]), > 100 µM at PP2A [2], 10 to 100 µM on PP2A [3] and < 10 µM in assay [4].
For `CCCCCCCCCCCCCCCCCCCC(=O)N(C)CCc1c[nH]c2ccccc12` [Compound I-38, N-[2-(1H-indol-3-yl)ethyl]-N-methylicosanamide], the 50% inhibitory concentration (IC50) (in assay [1]; against PP2A [3]; in assay [4]) was > 100 µM throughout.
For `CCCCCCCCCCCCCCCCCCNC(=O)Cc1c[nH]c2ccc(O)cc12` [Compound I-39, 2-(5-hydroxy-1H-indol-3-yl)-N-octadecylacetamide], the IC50 in assay [1] (setting [5]) is < 10 µM; on PP2A [2], 10 to 100 µM; on PP2A [3] it was 10 to 100 µM; in assay [4], 10 to 100 µM.
`CCCCCCCCCCCCCCCCCCCC(=O)NCCc1c[nH]c2ccccc12` [Compound I-64, N-(2-(1H-indol-3-yl)ethyl) icosanamide]: the half-maximal inhibitory concentration (IC50) is < 10 µM in assay [1] (setting [5]), 10 to 100 µM against PP2A [2], > 100 µM against PP2A [3] and < 10 µM in assay [4].
For `CCCCCCCCCCCCCCCCCC(=O)NCCc1c[nH]c2ccccc12` [Compound I-65, N-(2-(1H-indol-3-yl)ethyl)stearamide], the IC50 was < 10 µM in assay [1] (setting [5]), 10 to 100 µM on PP2A [2], > 100 µM against PP2A [3] and < 10 µM in assay [4].
In the case of `CCCCCCCCCCCCCCCCCC(=O)NCCc1c[nH]c2ccc(O)cc12` [Compound I-66, N-(2-(5-hydroxy-1H-indol-3-yl)ethyl)stearamide], the concentration for half-maximal inhibition (IC50) is < 10 µM in assay [1] (setting [5]), > 100 µM on PP2A [2], 10 to 100 µM against PP2A [3] and < 10 µM in assay [4].
With `CCCCCCCCCCCCCCCCCCC(=O)NCCc1c[nH]c2ccc(O)cc12` [Compound I-67, N-(2-(5-hydroxy-1H-indol-3-yl)ethyl)nonadecanamide], the IC50 was > 100 µM in assay [1] (setting [5]), > 100 µM against PP2A [2] and 10 to 100 µM at PP2A [3].
On to `CCCCCCCCCCCCCCCC(=O)NCCc1c[nH]c2ccc(O)cc12` [Compound I-76, N-(2-(5-hydroxy-1H-indol-3-yl)emyl)palmitamide], for which the IC50 (in assay [1] (setting [5]); against PP2A [3]; in assay [4]) was > 100 µM in each case.
In the case of `CCCCCCCCCC(=O)NCCc1c[nH]c2ccc(O)cc12` [Compound I-77, N-(2-(5-hydroxy-1H-indol-3-yl)ethyl)decanamide], the IC50 (in assay [1] (setting [5]); against PP2A [3]; in assay [4]) was > 100 µM throughout.
Turning to `CCCCCCCCCCCCCCCCNC(=O)NC(Cc1c[nH]c2ccc(O)cc12)C(=O)O` (stereo not shown) [Compound I-78, 2-(3-hexadecylureido)-3-(5-hydroxy-1H-indol-3-yl)propanoic acid], the IC50 in assay [1] (setting [5]) is < 10 µM; against PP2A [3], > 100 µM; in assay [4], < 10 µM.
As to `CCCCCCCCCCCCCCCCCCNC(=O)NC(Cc1c[nH]c2ccc(O)cc12)C(=O)O` (stereo not shown) [Compound I-79, 3-(5-hydroxy-1H-indol-3-yl)-2-(3-octadecylureido)propanoic acid], the 50% inhibitory concentration (IC50) in assay [1] (setting [5]) is 10 to 100 µM; against PP2A [3], > 100 µM; in assay [4] it was < 10 µM.
The like results for `CCCCCCCCCCCCCCCCNC(=O)C(Cc1c[nH]c2ccccc12)NC(=O)OC(C)(C)C` (stereo not shown) [Compound I-80, tert-butyl 1-(hexadecylamino)-3-(1H-indol-3-yl)-1-oxpopran-2-ylcarbamate] were, in that order, < 10 µM, 10 to 100 µM and < 10 µM.

What is called IC50 is the concentration needed to halve the response being measured.
